Columns and labels:
Conditions in all cases: 72 h
[1] = tested on: HL-60; assay: area under dose-response curve (viability, 1 nM-10 uM) (fraction (0-1)); higher = more sensitive
In short: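 In 384-well plates, the full library was rescreened in duplicate on HL-60 cells in RPMI 1640 with 10% FBS, at 1–10,000 nM in five tenfold concentrations, for 72 h at 37 °C, 5% CO2. Each run also held DMSO or 100 nM of one of three metabolic inhibitors. Viability was measured by CellTiter-Glo and normalised to DMSO wells and to wells with proteasome inhibitor, present at 10 μM. Any area under the curve comes from four-parameter log-logistic fitting with drc and PharmacoGx.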

[2] = tested on: Mono-Mac-6
In short: (§1)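 For the IC50, dose–response curves were fitted with a log-logistic model. The data came from fifteen myeloid leukaemia cell lines grown in RPMI 1640 at densities in the linear growth range and incubated in 384-well plates for 72 h at 37 °C under 5% CO2. Doses were five tenfold steps from 1 to 10,000 nM in duplicate, and luminescent ATP viability was normalised to vehicle and to a positive control at 10 µM before four-parameter fitting.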

[3] = tested on: KU-812
In short: as §1

[4] = tested on: BV-173
In short: as §1

[5] = tested on: MV4-11
In short: as §1

[6] = tested on: KG-1
In short: as §1

[7] = tested on: SHI-1
In short: as §1

[8] = tested on: LAMA-84
In short: as §1

[9] = tested on: HL-60
In short: as §1

[10] = tested on: K-562
In short: as §1

[11] = tested on: KCL-22
In short: as §1

[12] = tested on: NOMO-1
In short: as §1

[13] = tested on: HEL
In short: as §1

[14] = tested on: MOLM-13
In short: as §1

[15] = tested on: ML-2
In short: as §1

[16] = tested on: THP-1
In short: as §1

[17] = tested on: Mono-Mac-6; assay: cell viability (% survival relative to DMSO control, bortezomib = 0%); higher = less cytotoxic
In short: (§2)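 After 72 h at 37 °C with 5% CO2, cell viability in 384-well plates was measured by CellTiter-Glo luminescence. The plates held compounds pre-printed at 1, 10, 100, 1000 or 10000 nM in duplicate, and cells from 10 AML and 5 CML lines seeded at densities titrated to linear growth. Percent survival is the duplicate mean, normalised to vehicle as 100% and a 10 µM positive control as 0%.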

[18] = tested on: KU-812; assay: as above
In short: as §2

[19] = tested on: BV-173; assay: as above
In short: as §2

[20] = tested on: MV4-11; assay: as above
In short: as §2

[21] = tested on: KG-1; assay: as above
In short: as §2

[22] = tested on: SHI-1; assay: as above
In short: as §2

[23] = tested on: HL-60; assay: as above
In short: as §2

[24] = tested on: K-562; assay: as above
In short: as §2

[25] = tested on: KCL-22; assay: as above
In short: as §2

[26] = tested on: NOMO-1; assay: as above
In short: as §2

[27] = tested on: HEL; assay: as above
In short: as §2

[28] = tested on: MOLM-13; assay: as above
In short: as §2

[29] = tested on: ML-2; assay: as above
In short: as §2

[30] = tested on: THP-1; assay: as above
In short: as §2

[31] = co-treatment: GSK2194069 100 nM
[32] = co-treatment: pictilisib 100 nM

CN(C)C(=O)[C@H](O)[C@H](Cc1ccccc1)NC(=O)c1cc2cc(Cl)ccc2[nH]1
area under dose-response curve ([1]; co-treatment: AZD3965 100 nM): < 0.0301
area under dose-response curve ([1]; co-treatment: DMSO vehicle): < 0.0301
area under dose-response curve [1, 31]: < 0.0301
area under dose-response curve [1, 32]: < 0.0301
IC50 (cell viability) [2]: > 10 µM
IC50 (cell viability) [3]: > 10 µM
IC50 (cell viability) [4]: > 10 µM
IC50 (cell viability) [5]: > 10 µM
IC50 (cell viability) [6]: > 10 µM
IC50 (cell viability) [7]: > 10 µM
IC50 (cell viability) [8]: > 10 µM
IC50 (cell viability) [9]: > 10 µM
IC50 (cell viability) [10]: > 10 µM
IC50 (cell viability) [11]: > 10 µM
IC50 (cell viability) [12]: > 10 µM
IC50 (cell viability) [13]: > 10 µM
IC50 (cell viability) [14]: > 10 µM
IC50 (cell viability) [15]: > 10 µM
IC50 (cell viability) [16]: > 10 µM
cell viability ([17]; 1 nM): 94.8%
cell viability ([17]; 10 nM): 97.8%
cell viability ([17]; 100 nM): 103%
cell viability ([17]; 1000 nM): 96.5%
cell viability ([17]; 10000 nM): 83.8%
cell viability ([18]; 1 nM): 98.1%
cell viability ([18]; 10 nM): 96%
cell viability ([18]; 100 nM): 102%
cell viability ([18]; 1000 nM): 104%
cell viability ([18]; 10000 nM): 62.6%
cell viability ([19]; 1 nM): 88.3%
cell viability ([19]; 10 nM): 110%
cell viability ([19]; 100 nM): 98.4%
cell viability ([19]; 1000 nM): 105%
cell viability ([19]; 10000 nM): 73.2%
cell viability ([20]; 1 nM): 97.9%
cell viability ([20]; 10 nM): 83.8%
cell viability ([20]; 100 nM): 98.4%
cell viability ([20]; 1000 nM): 102%
cell viability ([20]; 10000 nM): 68.6%
cell viability ([21]; 1 nM): 102%
cell viability ([21]; 10 nM): 93.9%
cell viability ([21]; 100 nM): 95.2%
cell viability ([21]; 1000 nM): 114%
cell viability ([21]; 10000 nM): 80.3%
cell viability ([22]; 1 nM): 106%
cell viability ([22]; 10 nM): 97.8%
cell viability ([22]; 100 nM): 115%
cell viability ([22]; 1000 nM): 114%
cell viability ([22]; 10000 nM): 99.6%
cell viability ([23]; 1 nM): 85.4%
cell viability ([23]; 10 nM): 100%
cell viability ([23]; 100 nM): 108%
cell viability ([23]; 1000 nM): 174%
cell viability ([23]; 10000 nM): 89.1%
cell viability ([24]; 1 nM): 79%
cell viability ([24]; 10 nM): 84.3%
cell viability ([24]; 100 nM): 94.3%
cell viability ([24]; 1000 nM): 105%
cell viability ([24]; 10000 nM): 79%
cell viability ([25]; 1 nM): 107%
cell viability ([25]; 10 nM): 98.3%
cell viability ([25]; 100 nM): 108%
cell viability ([25]; 1000 nM): 105%
cell viability ([25]; 10000 nM): 91.6%
cell viability ([26]; 1 nM): 101%
cell viability ([26]; 10 nM): 102%
cell viability ([26]; 100 nM): 106%
cell viability ([26]; 1000 nM): 106%
cell viability ([26]; 10000 nM): 95.4%
cell viability ([27]; 1 nM): 98.5%
cell viability ([27]; 10 nM): 102%
cell viability ([27]; 100 nM): 99.1%
cell viability ([27]; 1000 nM): 112%
cell viability ([27]; 10000 nM): 88.1%
cell viability ([28]; 1 nM): 97.6%
cell viability ([28]; 10 nM): 98.6%
cell viability ([28]; 100 nM): 101%
cell viability ([28]; 1000 nM): 123%
cell viability ([28]; 10000 nM): 88.1%
cell viability ([29]; 1 nM): 110%
cell viability ([29]; 10 nM): 100%
cell viability ([29]; 100 nM): 106%
cell viability ([29]; 1000 nM): 120%
cell viability ([29]; 10000 nM): 85%
cell viability ([30]; 1 nM): 96.3%
cell viability ([30]; 10 nM): 95.8%
cell viability ([30]; 100 nM): 103%
cell viability ([30]; 1000 nM): 104%
cell viability ([30]; 10000 nM): 91.8%

COc1ccc(C(=O)Nc2c(Cl)cncc2Cl)cc1OC1CCCC1 [Piclamilast]
area under dose-response curve ([1]; co-treatment: AZD3965 100 nM): < 0.0301
area under dose-response curve ([1]; co-treatment: DMSO vehicle): < 0.0301
area under dose-response curve [1, 31]: < 0.0301
area under dose-response curve [1, 32]: < 0.0301
IC50 (cell viability) [2]: > 10 µM
IC50 (cell viability) [3]: > 10 µM
IC50 (cell viability) [4]: > 10 µM
IC50 (cell viability) [5]: > 10 µM
IC50 (cell viability) [6]: > 10 µM
IC50 (cell viability) [7]: > 10 µM
IC50 (cell viability) [8]: > 10 µM
IC50 (cell viability) [9]: > 10 µM
IC50 (cell viability) [10]: > 10 µM
IC50 (cell viability) [11]: > 10 µM
IC50 (cell viability) [12]: > 10 µM
IC50 (cell viability) [13]: > 10 µM
IC50 (cell viability) [14]: > 10 µM
IC50 (cell viability) [15]: > 10 µM
IC50 (cell viability) [16]: > 10 µM
cell viability ([17]; 1 nM): 93.6%
cell viability ([17]; 10 nM): 107%
cell viability ([17]; 100 nM): 80.6%
cell viability ([17]; 1000 nM): 100%
cell viability ([17]; 10000 nM): 87.7%
cell viability ([18]; 1 nM): 91.4%
cell viability ([18]; 10 nM): 94.6%
cell viability ([18]; 100 nM): 90%
cell viability ([18]; 1000 nM): 105%
cell viability ([18]; 10000 nM): 99.1%
cell viability ([19]; 1 nM): 86.3%
cell viability ([19]; 10 nM): 107%
cell viability ([19]; 100 nM): 92.1%
cell viability ([19]; 1000 nM): 114%
cell viability ([19]; 10000 nM): 99.7%
cell viability ([20]; 1 nM): 92.5%
cell viability ([20]; 10 nM): 110%
cell viability ([20]; 100 nM): 92.8%
cell viability ([20]; 1000 nM): 118%
cell viability ([20]; 10000 nM): 114%
cell viability ([21]; 1 nM): 97.7%
cell viability ([21]; 10 nM): 102%
cell viability ([21]; 100 nM): 86%
cell viability ([21]; 1000 nM): 99.2%
cell viability ([21]; 10000 nM): 104%
cell viability ([22]; 1 nM): 94.1%
cell viability ([22]; 10 nM): 105%
cell viability ([22]; 100 nM): 106%
cell viability ([22]; 1000 nM): 99.3%
cell viability ([22]; 10000 nM): 113%
cell viability ([23]; 1 nM): 87.1%
cell viability ([23]; 10 nM): 103%
cell viability ([23]; 100 nM): 65.2%
cell viability ([23]; 1000 nM): 87.5%
cell viability ([23]; 10000 nM): 115%
cell viability ([24]; 1 nM): 90.5%
cell viability ([24]; 10 nM): 111%
cell viability ([24]; 100 nM): 90.7%
cell viability ([24]; 1000 nM): 108%
cell viability ([24]; 10000 nM): 83.1%
cell viability ([25]; 1 nM): 95.3%
cell viability ([25]; 10 nM): 101%
cell viability ([25]; 100 nM): 92.7%
cell viability ([25]; 1000 nM): 102%
cell viability ([25]; 10000 nM): 108%
cell viability ([26]; 1 nM): 87.1%
cell viability ([26]; 10 nM): 104%
cell viability ([26]; 100 nM): 94.6%
cell viability ([26]; 1000 nM): 97.1%
cell viability ([26]; 10000 nM): 110%
cell viability ([27]; 1 nM): 95.3%
cell viability ([27]; 10 nM): 108%
cell viability ([27]; 100 nM): 102%
cell viability ([27]; 1000 nM): 119%
cell viability ([27]; 10000 nM): 109%
cell viability ([28]; 1 nM): 89.2%
cell viability ([28]; 10 nM): 110%
cell viability ([28]; 100 nM): 67.4%
cell viability ([28]; 1000 nM): 103%
cell viability ([28]; 10000 nM): 88.1%
cell viability ([29]; 1 nM): 84.4%
cell viability ([29]; 10 nM): 104%
cell viability ([29]; 100 nM): 102%
cell viability ([29]; 1000 nM): 88.2%
cell viability ([29]; 10000 nM): 110%
cell viability ([30]; 1 nM): 94%
cell viability ([30]; 10 nM): 104%
cell viability ([30]; 100 nM): 97.6%
cell viability ([30]; 1000 nM): 102%
cell viability ([30]; 10000 nM): 109%
